Data from patent US4168318A, “1-(2,4,6-Trihydroxyphenyl)-propanedione-(1,2)-compounds and therapeutic compositions” (priority 1974, dated 1979).
Read-outs that look alike come from different tables or passages of the source. Marks after values point to notes of the source that are not given here.

Experiments:
[1] = tested on: mice; experiment: Acute toxicity / acute tolerance after i.v. injection in mice (Experiment A); type: in vivo, mice (male and female SPF-mice, stock NMRI); conditions: for death rate % / death rate/No.: 14 days observation; for death rate/day, 1st: 1st day; for DL50, converted to the free compound: given as N-methyl glucamine salt, expressed as Compound; for death rate/day, 3rd: 3rd day; for acute symptoms of non-tolerance: mice; for death rate/day, 2nd: 2nd day
Method: (§1) The acute toxicity of the compounds of the invention was tested on mice, and since the substances are substantially nontoxic after oral administration, the acute tolerance of the two Compounds B and C in their methyl glucamine salts form was determined after i.v. injection. This form of preparation was also chosen for the pharmacological measurement of the antiphalloidine effect.
(§2) Experimental animals were male and female SPF-mice, stock NMRI, of the firm of Voss, Tuttlingen, Germany, having a weight of about 25-30 g. each. All animals were housed under identical conditions and were given "Sniff" standard food and drinking water ad libitum. The mice were administered the dosages once in 20 ml 0.9% NaCl+4% PVP/kg i.v. at an injection rate of approximately 1 ml/min. The observation time was 14 days.
(§3) 1. Compound B as N-methyl glucamine salt.
(§4) 2. Compound C as N-methyl glucamine salt.
(§5) 3. Polyvinyl pyrrolidone (PVP) of Fluka, mol. wt.~10,000 stock solution: 4% PVP dissolved in 0.9% NaCl.

[2] = tested on: liver damage induced by phalloidine; experiment: Anti-phalloidine effect: death rate and survival time after phalloidine poisoning (Experiment B); type: in vivo, mice (male and female, homebred strain, stock Garvens); conditions: 140.5 mg/kg i.v. as N-methyl glucamine salt 1 hour before phalloidine 3 mg/kg i.p.
Method: The liver-protective effect of the compounds B and C according to the invention in the form of their water-soluble N-methyl glucamine salts was tested on mice by antagonizing liver damage induced by phalloidine with treatment using the compounds of the invention.
140.5 mg of Compound B/25 ml 0.9% NaCl+4% PVP/kg i.v.
40.5 mg MG/25 ml 0.9% NaCl+4% PVP/[…] i.v.
Phalloidine, predissolved in 3 ml methanol to 20 ml 0.9%
Experimental animals were male and female mice of a homebred strain, stock Garvens, having a weight of about 20-25 g. All animals were housed under identical conditions and were given "Ssniff" standard food and drinking water ad libitum.
Compound B as its N-methyl glucamine salt was injected in a dosage of 140.5 mg/kg i.v. 1 hour prior to administration of phalloidine at 3 mg/kg i.p. (to induce damage to the liver). The control animals received 40.5 mg/kg N-methyl glucamine salt i.v. The death rate and survival time after the phalloidine poisoning were registered. The observation time was 7 days.

[3] = Acute toxicity / acute tolerance after i.v. injection in mice (Experiment A); type: in vivo, mice (male and female SPF-mice, stock NMRI); conditions: mouse, in vivo, iv; for mortality at 336 h: N-methyl glucamine salt, 14 days observation, read-out: death rate %; for LD50 at 336 h: i.v., given as N-methyl glucamine salt, expressed as Compound, read-out: DL50, converted to the free compound
Method: as §1, §2, §3, §4, §5

[4] = tested on: phalloidine-induced damage to the liver; experiment: Anti-phalloidine effect: serum enzymes GOT and GPT (Experiment C); type: in vivo, mice (female SPF-mice, stock NMRI); conditions: 140.5 mg/kg i.v. as N-methyl glucamine salt 1 hour before phalloidine 1.5 mg/kg i.p.
Method: As an additional pharmacological measurement, the antiphalloidine effect of Compound C as its N-methyl glucamine salt i.v. was subsequently determined.
1.5 mg phalloidine, predissolved in 3 ml methanol ad 20 ml
Experimental animals were female SPF-mice, stock NMRI, of the firm of Voss, Tuttlingen, having a weight of about 25 g. All animals were housed under identical conditions and were given "Ssniff" standard food and drinking water ad libitum. Compound C as its N-methyl glucamine salt was injected in a dosage of 140.5 mg/kg i.v. 1 hour before the phalloidine poisoning (1.5 mg/kg i.p.). The control animals received 40.5 mg/kg N-methyl glucamine salt i.v. after a period of 24 hours subsequent to the damage to the liver, blood was taken from the mice from the retroorbital venae plexus for the determination of the serum enzymes GOT and GPT.

[5] = female mice, 570 mg/kg i.v., N-methyl glucamine salt
[6] = female mice, 680 mg/kg i.v., N-methyl glucamine salt
[7] = female mice, 800 mg/kg i.v., N-methyl glucamine salt
[8] = female mice, 960 mg/kg i.v., N-methyl glucamine salt
[9] = male mice, 425 mg/kg i.v., N-methyl glucamine salt
[10] = male mice, 600 mg/kg i.v., N-methyl glucamine salt
[11] = male mice, 714.1 mg/kg i.v., N-methyl glucamine salt
[12] = male mice, 850 mg/kg i.v., N-methyl glucamine salt
[13] = male mice, 1200 mg/kg i.v., N-methyl glucamine salt
[14] = male mice, 1700 mg/kg i.v., N-methyl glucamine salt
[15] = female mice, 424.3 mg/kg i.v., N-methyl glucamine salt
[16] = female mice, 504.6 mg/kg i.v., N-methyl glucamine salt
[17] = female mice, 600 mg/kg i.v., N-methyl glucamine salt
[18] = male mice, 424.3 mg/kg i.v., N-methyl glucamine salt
[19] = male mice, 504.6 mg/kg i.v., N-methyl glucamine salt

With `COc1cc(C2Oc3cc(CC(=O)C(=O)c4c(O)cc(O)cc4O)ccc3OC2CO)ccc1O` (stereo not drawn) [Compound B] the death rate % [1, 5] was 0%, the “death rate/No.” value [1, 5] was 0/10 and the “death rate/day, 1st” value [1, 6] was 1. The death rate % [1, 6] was 10%, the “death rate/No.” value [1, 6] was 1/10 and the survival time span ([1]; female mice, 680 mg/kg i.v., N-methyl glucamine salt, ' = minutes, ^h = hours) was ~23^h minutes-hours. For the same molecule, the “death rate/day, 1st” value [1, 7] was 3, the death rate % [1, 7] was 30% and the “death rate/No.” value [1, 7] was 3/10. The “death rate/day, 1st” value [1, 8] was 7, the death rate % [1, 8] was 70% and the “death rate/No.” value [1, 8] was 7/10. For the same molecule, the “DL50, converted to the free compound” value ([1]; female mice, i.v., 20160 min) was 604.98 mg/kg, the death rate % [1, 9] was 0% and the “death rate/No.” value [1, 9] was 0/5. For the same molecule, the death rate % [1, 10] was 0%, the “death rate/No.” value [1, 10] was 0/10 and the “death rate/day, 1st” value [1, 11] was 1. The “death rate/day, 3rd” value [1, 11] was 2, the death rate % [1, 11] was 30% and the “death rate/No.” value [1, 11] was 3/10. For the same molecule, the “death rate/day, 1st” value [1, 12] was 8, the death rate % [1, 12] was 80% and the “death rate/No.” value [1, 12] was 8/10. The “death rate/day, 1st” value [1, 13] was 5, the death rate % [1, 13] was 100% and the “death rate/No.” value [1, 13] was 5/5. The “death rate/day, 1st” value [1, 14] was 3, the death rate % [1, 14] was 100% and the “death rate/No.” value [1, 14] was 3/3. The DL50 ([1]; male mice, i.v., dose as N-methyl glucamine salt, 20160 min) was 820 ± 34 mg/kg, the “DL50, converted to the free compound” value ([1]; male mice, i.v., 20160 min) was 583.63 mg/kg and the “acute symptoms of non-tolerance” value ([1]; i.v., N-methyl glucamine salt) was “accelerated respiration, laying on their side, and clonic tonic cramps before death actually occurred”. The “phalloidine poisoning (DL80) measured by death rate and survival time” value [2] was “prevented” and the death rate ([2]; male and female mice, 7 days, control 80%) was 0%.

In the case of `COc1cc(C2Oc3c(O)cc(CC(=O)C(=O)c4c(O)cc(O)cc4O)cc3C2CO)ccc1O` (stereo not drawn) [Compound C], the mortality at 336 h ([3]; 300 mg/kg, female mice, 300 mg/kg i.v.) is reported as 0%, the mortality at 336 h ([3]; 300 mg/kg, male mice, 300 mg/kg i.v.) is reported as 0% and the mortality at 336 h ([3]; 424.3 mg/kg, female mice, 424.3 mg/kg i.v.) is reported as 80%. It also gave a mortality at 336 h ([3]; 424.3 mg/kg, male mice, 424.3 mg/kg i.v.) of 40%, a mortality at 336 h ([3]; 504.6 mg/kg, female mice, 504.6 mg/kg i.v.) of 100% and a mortality at 336 h ([3]; 504.6 mg/kg, male mice, 504.6 mg/kg i.v.) of 100%. The mortality at 336 h ([3]; 600 mg/kg, female mice, 600 mg/kg i.v.) was 100%, the mortality at 336 h ([3]; 600 mg/kg, male mice, 600 mg/kg i.v.) was 100% and the LD50 at 336 h ([3]; female mice) was 274 mg/kg. For the same molecule, the LD50 at 336 h ([3]; male mice) was 295 mg/kg, the “death rate/No.” value ([1]; female mice, 300 mg/kg i.v., N-methyl glucamine salt) was 0/10 and the “death rate/day, 2nd” value [1, 15] was 1. For the same molecule, the “death rate/day, 3rd” value [1, 15] was 5, the “death rate/day, 4th” value ([1]; female mice, 424.3 mg/kg i.v., N-methyl glucamine salt, 4th day) was 2 and the “death rate/No.” value [1, 15] was 8/10. For the same molecule, the “death rate/day, 1st” value [1, 16] was 5, the “death rate/No.” value [1, 16] was 5/5 and the “death rate/day, 1st” value [1, 17] was 5. The “death rate/No.” value [1, 17] was 5/5, the “death rate/No.” value ([1]; male mice, 300 mg/kg i.v., N-methyl glucamine salt) was 0/10 and the “death rate/day, 2nd” value [1, 18] was 3. For the same molecule, the “death rate/day, 3rd” value [1, 18] was 1, the “death rate/No.” value [1, 18] was 4/10 and the “death rate/day, 1st” value [1, 19] was 5. The “death rate/No.” value [1, 19] was 5/5, the “death rate/day, 1st” value [1, 10] was 5 and the “death rate/No.” value [1, 10] was 5/5. The “acute symptoms of non-tolerance” value ([1]; i.v., N-methyl glucamine salt) was “accelerated respiration, laying on their side, and clonic tonic cramps before death actually occurred”, the “damage to the liver, measured by the increase of serum enzymes GOT and GPT” value [4] was “entirely prevented” and the “GPT in the serum” value ([4]; female mice, 24 hours after, control 667.4±324.6) was 13.4±0.9 mU/ml. For the same molecule, the “GOT in the serum” value ([4]; female mice, 24 hours after, control 1489.2±904.7) was 38.7±2.9 mU/ml.
